US20190290656A1, “PT(IV) PRODRUGS” (YISSUM RESEARCH DEVELOPMENT COMPANY OF THE HEBREW …, priority 2015, published 2019)
Read-outs that look alike come from different tables or passages of the source.

Key:
[1] = test system: Histone deacetylase (HDAC); test: Histone deacetylase assay (Fluor-de-Lys) in MCF-7 cells; format: cell-based, human; details: for IC50 for cellular inhibition of HDAC activity (in words): MCF-7, 24 h, increasing concentrations; for inhibition of HDAC activity: MCF-7, 24 h incubation with IC50 concentrations
Experimental: Histone deacetylase activity was determined using Fluor-de-Lys® HDAC fluorometric activity assay kit (Enzo Life Sciences International, Inc., Plymount Meeting, Pa., U.S.A.). […] Fluorescence was measured using a Fluoroskan Ascent FL (Labsystem, Finland) plate reader, with excitation at 360 nm and emission at 460 nm. For comparison purpose, the HDAC activity was also measured in nuclear extracts of MCF-7-treated cells by means of the same fluorometric activity assay kit. In this latter case, MCF-7 nuclear extracts were obtained as follow: cell pellets were re-suspended in lysis buffer [Tris.HCl (10 mM, pH 8.0), KCl (60 mM), EDTA (1.2 mM), DTT (1 mM), PMSF (0.05 mM), NP-40 (0.05%)] and kept on ice for 10 min. Subsequently, samples were centrifuged at 1000 g and re-suspended in the nuclear extraction buffer [Tris.HCl (20 mM, (pH 8.0), NaCl (420 mM), MgCl2 (0.7 mM), EDTA (0.25 mM), glycerol (25%)] for 30 min at 4° C., and then centrifuged at 15000 g for 15 min at 4° C.
The complexes described here were specifically designed to release either VPA of PhB inside the cells in the hope that they will inhibit HDAC activity paving the way for more efficient DNA platination. Thus, in addition to measuring the levels of DNA platination, we also measured the ability of these pro-drugs to inhibit HDAC activity in cells. […] For comparison purposes, the HDAC inhibitory effect determined by tested complexes was also assayed in isolated nuclei of MCF-7 treated cells (FIG. 3B).
The HDAC activity was determined by the Fluor de Lys® Fluorescent Cellular Activity Assay (Enzo Life Sciences).
Also, MCF-7 cells were incubated for 24 h with increasing concentrations of compounds I-VIII and their HDAC activity was determined. The IC50 values for the inhibition of HDAC activity in the cells are depicted in FIG. 3C.

[2] = test system: MCF-7 cells; test: MTT cytotoxicity assay, MCF-7; format: cell-based, human; details: for times more effective/potent than cisplatin: MCF-7; for IC50: MCF-7, 72 h exposure, MTT, read-out: IC50 (median growth inhibitory concentration)
Experimental: (§1) Cisplatin (CDDP) and oxaliplatin (OXP) were dissolved just before the experiment in a 0.9% NaCl solution.
(§2) Human prostate adenocarcinoma (PC3) cells were obtained from European Collection of Cell Cultures (ECACC, Salisbury, UK). Human ovarian cancer cell lines A2780 and its cisplatin resistant variant, A2780cisR, were kindly provided by Prof.
(§3) Triplicate cultures were established for each treatment.

[3] = test system: BxPC3 cells; test: MTT cytotoxicity assay, BxPC3; format: cell-based, human; details: for times more effective/potent than cisplatin: BxPC3; for IC50: BxPC3, 72 h exposure, MTT, read-out: IC50 (median growth inhibitory concentration)
[4] = test system: MCF-7 cells; test: Nuclear DNA fragmentation ELISA, MCF-7; format: cell-based, human; details: MCF-7, 24 h, IC50 concentrations
Description: FIGS. 4A-4C describe: FIG. 4A—Nuclear DNA fragmentation. […] Quantitative estimation of DNA fragmentation was obtained with an ELISA test. Data are the means of five independent experiments. Error bars indicate SD. […] FIG. 4C—Caspase activity. […] Data are the means of at least three independent experiments. Error bars indicate SD.
To gain more insights into the mode of action of newly synthesized Pt(IV) derivatives, compounds 1 and 6 were chosen for further experiments. In particular, their capacity to induce apoptosis against human breast MCF-7 cells treated with equitoxic concentrations (IC50 values) of these drugs was evaluated and compared. Nuclear DNA fragmentation and apoptosome complex formation are critical steps in the apoptotic process. […] Apoptotic cell death induction was confirmed through a Hoechst 33342 staining.

[5] = test system: PC3 cells; test: MTT cytotoxicity assay, PC3; format: cell-based, human; details: PC3, 72 h exposure, read-out: IC50 (median growth inhibitory concentration)
Experimental: as §1, §2, §3

[6] = test system: A549 cells; test: MTT cytotoxicity assay, A549; format: cell-based, human; details: for IC50: A549, 72 h exposure, MTT, read-out: IC50 (median growth inhibitory concentration)
Experimental: as §1, §2, §3

[7] = test system: A2780cisR cells; test: MTT cytotoxicity assay, A2780cisR (cisplatin resistant); format: cell-based, human; details: for IC50: 72 h exposure, MTT, read-out: IC50 (median growth inhibitory concentration)
Experimental: (§4) Platinum(IV) complexes were dissolved in DMSO to stock solutions of 1 mg/mL just before the experiment, and a calculated amount of drug solution was added to the cell growth medium to a final solvent concentration of 0.5%, which had no discernible effect on cell killing. Cisplatin (CDDP) and oxaliplatin (OXP) were dissolved just before the experiment in a 0.9% NaCl solution.
as §2
(§5) Cancer Res. 1988, 48, 589-601]. […] Triplicate cultures were established for each treatment.

[8] = test system: A498 cells; test: MTT cytotoxicity assay, A498; format: cell-based, human; details: A498, 72 h exposure, read-out: IC50 (median growth inhibitory concentration)
Experimental: as §4, §2, §5

[9] = test system: A2780 cells; test: MTT cytotoxicity assay, A2780; format: cell-based, human; details: for IC50: A2780, 72 h exposure, MTT, read-out: IC50 (median growth inhibitory concentration)
Experimental: as §4, §2, §5

[10] = test system: HCT-15 cells; test: MTT cytotoxicity assay, HCT-15; format: cell-based, human; details: for IC50: HCT-15, 72 h exposure, MTT (Table 1), read-out: IC50 (median growth inhibitory concentration)
Experimental: (§6) Cisplatin (CDDP) and oxaliplatin (OXP) were dissolved just before the experiment in a 0.9% NaCl solution. […]
as §5
(§7) MTT assay. […] Triplicate cultures were established for each treatment.
(§8) The two dimers, 3a and 3b, as well as compounds 1a and 2a were screened against six human cancer cell lines representative of lung (H157), colon (HCT-15), cervical (A431), ovarian (2008) and pancreatic (PSN1) cancers, along with melanoma (A375). Cytotoxicity was evaluated by means of the MTT test after 72 h of treatment and the in vitro antitumor potential of newly synthesized derivatives was compared to that of the reference metallo-drugs CDDP and OXP.

[11] = test system: A375 cells; test: MTT cytotoxicity assay, A375; format: cell-based, human; details: A375, 72 h exposure, MTT (Table 1); read-out: IC50 (median growth inhibitory concentration)
Experimental: as §6, §5, §7, §8

[12] = test system: Lewis lung carcinoma (LLC); test: In vivo efficacy study, Lewis lung carcinoma mouse model; design: species or system C57BL mice
Experimental: A preliminary in vivo efficacy study was carried out on a mouse model (see Table 3 below):
Lewis lung carcinoma (LLC) was implanted i.m. (2·10^6 cells inoculum) into the right hind leg of 8-week old inbred C57BL mice (24±3 g body weight). Chemotherapy was delayed until the tumor became visible (day 7).

[13] = octanol/water partition, shake-flask method; format: physicochemical
Experimental: To quantify the hydrophobicity of the platinum complexes, partition coefficients (log P) values for octanol/water partition were measured using the shake-flask method.

[14] = test system: nine cancer cell lines; test: MTT cytotoxicity, over the nine cancer cell lines; details: for average fold more potent than cisplatin: average over cell lines
[15] = read-out: average IC50 values for the nine cancer cell lines, mean over nine cell lines, 72 h MTT
[16] = daily dose 20 mg kg^-1 orally, day 7-14, LLC in C57BL mice

Structure (SMILES)	IC50 for cellular inhibition of HDAC activity (in words) [1]	inhibition of HDAC activity [1]	times more effective/potent than cisplatin [2]	IC50 [2] [nM]	times more effective/potent than cisplatin [3] [fold]	IC50 [3] [nM]	times higher induction of nucleosome formation compared with cisplatin [4] [fold]	IC50 [5] [nM]	IC50 [6] [nM]	IC50 ([7]; A2780cisR) [nM]	IC50 [8] [nM]	IC50 [9] [nM]	IC50 [10] [nM]	IC50 [11] [nM]	IC50 [14, 15] [nM]	other results
[NH2][Pt]([NH2])([Cl])([Cl])([O]C(=O)CCCc1ccccc1)[O]C(=O)CCCc1ccccc1 [Compound VI, ctc-[Pt(NH3)2(C10H11O2)2Cl2]]	highest inhibitory effect	approximately 70%	~100 fold	180 ± 30	~60	190 ± 10	2	410 ± 60	170 ± 40	120	430 ± 20	140	310 ± 40	160 ± 20	230	fold more potent than cisplatin ([6]; A549): ~50 fold; in vivo efficacy by oral administration (in words) ([12]; oral vs cisplatin ip): nearly as effective in this model as cisplatin; Log P [13]: −0.73 ± 0.05; average fold more potent than cisplatin ([14]; listed as Ctc-[Pt(NH3)2(PhB)2Cl2]): 50 fold; average fold more potent than cisplatin ([14]; listed as ctc-[Pt(NH3)2(PhB)2Cl2]): about 24 fold; fold improvement in potency on replacing both VPA ligands with PhB (VI vs I) ([14]; on the average): ~5 fold; fold more potent than the mono-PhB monoacetate complex ([14]; range over cell lines): 4.6-53 fold; IC50 ([14]; read-out: range of IC50 values over the cell lines, lowest-highest over nine cell lines): 120 to 430 nM
CCCC(CCC)C(=O)[O][Pt]([Cl])([Cl])[O]C(=O)C(CCC)CCC.N.N [I, Ctc-Pt(NH3)2(C8H15O2)2Cl2]]	highest inhibitory effect	~65%	about 19 fold	910 ± 300	~10	1130 ± 140	1.5	2130 ± 450	1120 ± 320	300 ± 100	2430 ± 720	250 ± 90	810 ± 120	1250 ± 250	1150	fold more potent/effective than cisplatin ([7]; A2780cisR): 46 fold; resistance factor ([7]; ratio IC50 resistant (A2780cisR) / sensitive (A2780) cells): 1.2; fold more potent than cisplatin ([9]; A2780): 11 fold; times more effective than cisplatin ([10]; HCT-15): ~14 fold; Average tumor weight (mean ± SD, g) [12, 16]: 0.179 ± 0.07 g; Inhibition of tumor growth (%) [12, 16]: 68.21%; fold more potent than the mono-VPA monoacetato analog ([14]; average of the nine cell lines): 4.6 fold; average fold more potent than cisplatin [14]: 8 fold
